Reference: patent US8952024B2, “Herbicidal pyrimidone derivatives” (E I du Pont de Nemours and Company, priority 2009, dated 2015)

Assays:
Format in all cases: in vivo
[1] = tested on: goosegrass (Eleusine indica); assay: Test B pre-/postemergence plant response; conditions: Preemergence, 62 g ai/ha; scale 0 to 100, 0 no effect, 100 complete control
[2] = tested on: winter barley (Hordeum vulgare); assay: Test B postemergence plant response; conditions: Postemergence; for Barley plant response rating: 250 g ai/ha, scale 0 to 100
Procedure, shortened: (§1)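 Plants grown in peat/vermiculite medium were sprayed postemergence at 2–18 cm height (1- to 4-leaf stage). After 13–15 days in the greenhouse, response was rated visually against untreated controls on a 0–100 scale (0 no effect, 100 complete control).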

[3] = tested on: windgrass (Apera spica-venti); assay: Test B postemergence plant response; conditions: Postemergence, scale 0 (no effect) to 100 (complete control)
Procedure, shortened: as §1

[4] = tested on: canarygrass (Phalaris minor); assay: Test B postemergence plant response; conditions: Postemergence; for Canarygrass plant response rating: 250 g ai/ha, scale 0 to 100
Procedure, shortened: as §1

[5] = tested on: chickweed (Stellaria media); assay: Test B postemergence plant response; conditions: Postemergence; for Chickweed plant response rating: 250 g ai/ha, scale 0 to 100
Procedure, shortened: as §1

[6] = tested on: sunflower (common oilseed sunflower, Helianthus annuus); assay: Test B pre-/postemergence plant response; conditions: Preemergence; for Sunflower plant response rating: 125 g ai/ha
Procedure, shortened: (§2)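 Compound in solvent + surfactant applied pre-em (loam/sand) or post-em (plants 2–18 cm, peat medium); greenhouse hold 13–15 days; visual 0–100 control score.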

[7] = tested on: pigweed (Amaranthus retroflexus); assay: Test B pre-/postemergence plant response
Procedure, shortened: as §2

[8] = tested on: lambsquarters (Chenopodium album); assay: Test B pre-/postemergence plant response
Procedure, shortened: as §2

[9] = tested on: Italian ryegrass (Lolium multiflorum); assay: Test B pre-/postemergence plant response
Procedure, shortened: as §2

[10] = tested on: bermudagrass (Cynodon dactylon); assay: Test B pre-/postemergence plant response
Procedure, shortened: as §2

[11] = tested on: wheat (Triticum aestivum); assay: Test B pre-/postemergence plant response
Procedure, shortened: as §2

[12] = tested on: nightshade (eastern black nightshade, Solanum ptycanthum); assay: Test B pre-/postemergence plant response; conditions: Preemergence; for Nightshade plant response rating: 125 g ai/ha
Procedure, shortened: as §2

[13] = tested on: galium (catchweed bedstraw, Galium aparine); assay: Test B pre-/postemergence plant response; conditions: Preemergence; for Galium plant response rating: 125 g ai/ha
Procedure, shortened: as §2

[14] = tested on: ragweed (common ragweed, Ambrosia elatior); assay: Test B pre-/postemergence plant response
Procedure, shortened: as §2

[15] = 31 g ai/ha, scale 0 to 100 (0 no effect, 100 complete control)
[16] = 62 g ai/ha, scale 0 (no effect) to 100 (complete control), 13 to 15 days
[17] = 125 g ai/ha, visual rating after 13 to 15 days, scale 0 (no effect) to 100 (complete control)
[18] = 125 g ai/ha, visual rating after 13 to 15 days
[19] = 62 g ai/ha, scale 0 to 100, 0 no effect, 100 complete control
[20] = 250 g ai/ha, Preemergence, 0 to 100 scale
[21] = Postemergence, 62 g ai/ha, scale 0 (no effect) to 100 (complete control), 13 to 15 days
[22] = Postemergence, 125 g ai/ha, visual rating after 13 to 15 days, scale 0 (no effect) to 100 (complete control)
[23] = Preemergence, 31 g ai/ha, scale 0 to 100 (0 no effect, 100 complete control)
[24] = Preemergence, 62 g ai/ha, scale 0 to 100, 0 no effect, 100 complete control
[25] = Preemergence, 125 g ai/ha, 0 to 100 scale
[26] = Postemergence, 250 g ai/ha, scale 0 to 100
[27] = Postemergence, 31 g ai/ha, scale 0 to 100 (0 no effect, 100 complete control)

O=C1CCCC(O)=C1C(=O)c1cnc(-c2cccc(Cl)c2)n(-c2ccccc2)c1=O [Compound 34] was tested, and the “Plant response rating, Goosegrass” value [1] was 100, the “Plant response rating, Barley” value [2, 15] was 0 and the “Plant response rating, Barley” value [2, 16] was 30. The “Plant response rating, Barley” value [2, 17] was 30, the “Barley plant response rating” value [2] was 30 and the “Plant response rating, Windgrass” value ([3]; 62 g ai/ha, 13 to 15 days) was 40. The “Plant response rating, Windgrass” value [3, 18] was 50, the “Plant response rating, Canarygrass” value [4, 15] was 5 and the “Plant response rating, Canarygrass” value [4, 16] was 50. For the same compound, the “Plant response rating, Canarygrass” value [4, 17] was 50, the “Canarygrass plant response rating” value [4] was 50 and the “Plant response rating, Chickweed” value [5, 15] was 50. The “Plant response rating, Chickweed” value [5, 16] was 75, the “Plant response rating, Chickweed” value [5, 17] was 98 and the “Chickweed plant response rating” value [5] was 100. For the same compound, the “Plant response rating, Sunflower” value ([6]; 250 g ai/ha, 0 to 100 scale) was 90, the “Plant response rating, Sunflower” value [6, 15] was 55 and the “Plant response rating, Sunflower” value [6, 19] was 70. The “Sunflower plant response rating” value ([6]; 0 to 100 scale) was 80, the “Plant response rating, Pigweed” value [7, 20] was 100 and the “Plant response rating, Pigweed” value [7, 21] was 90. The “Plant response rating, Pigweed” value [7, 22] was 98, the “Plant response rating, Pigweed” value [7, 23] was 100 and the “Plant response rating, Pigweed” value [7, 24] was 100. The “Pigweed plant response rating” value [7, 25] was 100, the “Plant response rating, Lambsquarters” value [8, 20] was 100 and the “Plant response rating, Lambsquarters” value [8, 21] was 98. The “Plant response rating, Lambsquarters” value [8, 22] was 100, the “Lambsquarters plant response rating” value [8, 26] was 100 and the “Plant response rating, Lambsquarters” value [8, 23] was 100. The “Plant response rating, Lambsquarters” value [8, 24] was 100, the “Lambsquarters plant response rating” value [8, 25] was 100 and the “Plant response rating, Ryegrass, Italian” value [9, 20] was 10. The “Plant response rating, Ryegrass, Italian” value [9, 21] was 10, the “Plant response rating, Ryegrass, Italian” value [9, 22] was 20 and the “Plant response rating, Ryegrass, Italian” value [9, 23] was 0. For the same compound, the “Plant response rating, Ryegrass, Italian” value [9, 24] was 0, the “Ryegrass, Italian plant response rating” value [9, 25] was 5 and the “Plant response rating, Bermudagrass” value [10, 20] was 100. The “Plant response rating, Bermudagrass” value [10, 27] was 75, the “Plant response rating, Bermudagrass” value [10, 21] was 95 and the “Plant response rating, Bermudagrass” value [10, 22] was 95. For the same compound, the “Bermudagrass plant response rating” value [10, 26] was 98, the “Plant response rating, Bermudagrass” value [10, 23] was 100 and the “Plant response rating, Bermudagrass” value [10, 24] was 100. For the same compound, the “Bermudagrass plant response rating” value [10, 25] was 100, the “Plant response rating, Wheat” value [11, 20] was 0 and the “Plant response rating, Wheat” value [11, 21] was 10. For the same compound, the “Plant response rating, Wheat” value [11, 22] was 35, the “Plant response rating, Wheat” value [11, 24] was 0 and the “Wheat plant response rating” value [11, 25] was 0. For the same compound, the “Plant response rating, Nightshade” value ([12]; 250 g ai/ha, 0 to 100 scale) was 100, the “Plant response rating, Nightshade” value [12, 15] was 55 and the “Plant response rating, Nightshade” value [12, 19] was 95. For the same compound, the “Nightshade plant response rating” value ([12]; 0 to 100 scale) was 100, the “Plant response rating, Galium” value ([13]; 250 g ai/ha, 0 to 100 scale) was 98 and the “Plant response rating, Galium” value [13, 15] was 10. For the same compound, the “Plant response rating, Galium” value [13, 19] was 50, the “Galium plant response rating” value ([13]; 0 to 100 scale) was 90 and the “Plant response rating, Ragweed” value [14, 20] was 90. The “Plant response rating, Ragweed” value [14, 21] was 85, the “Plant response rating, Ragweed” value [14, 22] was 95 and the “Plant response rating, Ragweed” value [14, 23] was 75. For the same compound, the “Plant response rating, Ragweed” value [14, 24] was 80 and the “Ragweed plant response rating” value [14, 25] was 90.

In the case of O=C1CCCC(O)=C1C(=O)c1cnc(-c2ccccc2)n(-c2ccccc2Br)c1=O [Compound 37], the “Plant response rating, Goosegrass” value [1] is reported as 0, the “Plant response rating, Barley” value [2, 15] is reported as 0 and the “Plant response rating, Barley” value [2, 16] is reported as 0. For the same compound, the “Plant response rating, Barley” value [2, 17] was 0, the “Barley plant response rating” value [2] was 0 and the “Plant response rating, Windgrass” value ([3]; 62 g ai/ha, 13 to 15 days) was 30. For the same compound, the “Plant response rating, Windgrass” value [3, 18] was 50, the “Plant response rating, Canarygrass” value [4, 15] was 0 and the “Plant response rating, Canarygrass” value [4, 16] was 5. The “Plant response rating, Canarygrass” value [4, 17] was 10, the “Canarygrass plant response rating” value [4] was 30 and the “Plant response rating, Chickweed” value [5, 15] was 80. For the same compound, the “Plant response rating, Chickweed” value [5, 16] was 80, the “Plant response rating, Chickweed” value [5, 17] was 85 and the “Chickweed plant response rating” value [5] was 100. For the same compound, the “Plant response rating, Sunflower” value ([6]; 250 g ai/ha, 0 to 100 scale) was 90, the “Plant response rating, Sunflower” value [6, 15] was 0 and the “Sunflower plant response rating” value ([6]; 0 to 100 scale) was 45. For the same compound, the “Plant response rating, Pigweed” value [7, 20] was 100, the “Plant response rating, Pigweed” value [7, 21] was 85 and the “Plant response rating, Pigweed” value [7, 22] was 98. For the same compound, the “Plant response rating, Pigweed” value [7, 23] was 100, the “Pigweed plant response rating” value [7, 25] was 100 and the “Plant response rating, Lambsquarters” value [8, 20] was 100. The “Plant response rating, Lambsquarters” value [8, 21] was 98, the “Plant response rating, Lambsquarters” value [8, 22] was 98 and the “Lambsquarters plant response rating” value [8, 26] was 100. For the same compound, the “Plant response rating, Lambsquarters” value [8, 23] was 95, the “Plant response rating, Lambsquarters” value [8, 24] was 98 and the “Lambsquarters plant response rating” value [8, 25] was 100. For the same compound, the “Plant response rating, Ryegrass, Italian” value [9, 20] was 0, the “Plant response rating, Ryegrass, Italian” value [9, 21] was 0 and the “Plant response rating, Ryegrass, Italian” value [9, 22] was 5. For the same compound, the “Plant response rating, Ryegrass, Italian” value [9, 23] was 0, the “Ryegrass, Italian plant response rating” value [9, 25] was 0 and the “Plant response rating, Bermudagrass” value [10, 20] was 100. The “Plant response rating, Bermudagrass” value [10, 27] was 85, the “Plant response rating, Bermudagrass” value [10, 21] was 90 and the “Plant response rating, Bermudagrass” value [10, 22] was 98. The “Bermudagrass plant response rating” value [10, 26] was 100, the “Plant response rating, Bermudagrass” value [10, 23] was 10 and the “Plant response rating, Bermudagrass” value [10, 24] was 80. For the same compound, the “Bermudagrass plant response rating” value [10, 25] was 98, the “Plant response rating, Wheat” value [11, 20] was 0 and the “Plant response rating, Wheat” value [11, 21] was 0. For the same compound, the “Plant response rating, Wheat” value [11, 22] was 0, the “Plant response rating, Wheat” value [11, 23] was 0 and the “Wheat plant response rating” value [11, 25] was 0. The “Plant response rating, Nightshade” value ([12]; 250 g ai/ha, 0 to 100 scale) was 85, the “Plant response rating, Nightshade” value [12, 15] was 0 and the “Plant response rating, Nightshade” value [12, 19] was 40. The “Nightshade plant response rating” value ([12]; 0 to 100 scale) was 80, the “Plant response rating, Galium” value ([13]; 250 g ai/ha, 0 to 100 scale) was 100 and the “Plant response rating, Galium” value [13, 15] was 0. The “Plant response rating, Galium” value [13, 19] was 10, the “Galium plant response rating” value ([13]; 0 to 100 scale) was 30 and the “Plant response rating, Ragweed” value [14, 20] was 98. The “Plant response rating, Ragweed” value [14, 21] was 80, the “Plant response rating, Ragweed” value [14, 22] was 95 and the “Plant response rating, Ragweed” value [14, 23] was 0. For the same compound, the “Ragweed plant response rating” value [14, 25] was 65.
